One may read the IC50 as the concentration that inhibits the measured activity by half.

The source of these data is patent publication US9388193B2, “Dipicolylamine derivatives and their pharmaceutical uses” (National Health Research Institutes, priority 2014, dated 2016).

Each structure is given as a SMILES string. Some results are limits rather than exact numbers.

The format of series [1] is in vitro ADME. The conditions noted are these: mouse, plasma; for Stability (percentage remaining), time = 0: 0 h. Here is the method:
Plasma Stability of Zn-DPA Conjugates
Zn-DPA conjugates, Zn-DPA-(8), Zn-DPA-(12), Zn-DPA-(25), Zn-DPA-(26), and Zn-DPA-(42) prepared from the corresponding compounds 8, 12, 25, 26, and 42, respectively, were incubated in mouse plasma at 37° C. for up to 24 hours to assess the stability of these conjugates.
A sample was analyzed with a High Performance Liquid Chromatography system to determine the concentration of a test conjugate at one of four time points (i.e., 0, 3 hours, 6 hours, and 24 hours). The percentages of the test conjugate remaining at 3, 6, and 24 hours after incubation in the plasma were determined. A higher percentage indicates greater stability.

The next series has as its system Colo205 cells. The series is described as follows: Cell viability MTS assay, Colo205. The format is cell-based. The conditions noted are these: Homo sapiens, COLO 205, 72 hours incubation. Here is the method: (§1) SCM-1, MiaPaca2 and Colo205 cells were grown in RPMI 1640 (Roswell Park Memorial Institute) medium (RPMI; Gibco), supplemented with 10% fetal bovine serum (FBS; Gibco). Detroit551 cells were grown in Dulbecco's modified Eagle's medium (DMEM) supplemented with 10% FBS 50 U/mL of penicillin and streptomycin, and 1% Nonessential amino acids (NEAA; Gibco).
(§2) Zn-DPA conjugates, Zn-DPA-(8), Zn-DPA-(12), Zn-DPA-(25), Zn-DPA-(26), and Zn-DPA-(42) prepared from the corresponding compounds 8, 12, 25, 26, and 42, respectively, were used to inhibit the growth of human cancer cells (SCM-1, Colo205, MiaPaca2) and human embryonic skin fibroblast cells Detroit551 following the procedures described below.
(§3) Cell viability was examined by the MTS assay (Promega, Madison, Wis., USA). More specifically, cells were grown (2500˜3000 cells/well) in a flat bottomed 96-well plate for 24 hours. A medium was added along with a test compound at a pre-determined concentration. The cells were further incubated for 72 hours. At the end of the incubation, the medium was removed and […] with 100 μl of a 3-(4,5-dimethylthiazol-2-yl)-5-(3-carboxymethoxyphenyl)-2-(4-sulfophenyl)-2H-tetrazolium/phenazine methosulfate mixture. The cells were again incubated for 1.5 hours at 37° C. in a humidified incubator with 5% CO2 to allow viable cells to convert the tetrazolium salt into formazan. The conversion was determined by measuring the absorbance at 490 nm using a BioTek PowerWave-X Absorbance Microplate Reader.
(§4) The data obtained were normalized using a vehicle (dimethyl sulfoxide, DMSO)-treated control (100% viability) and a background control (0% viability) to verify growth inhibition. The IC50 value is defined as the concentration of a compound that induces a 50% reduction in cell viability in comparison with a vehicle-treated control. These values were calculated using GraphPad Prism version 4 software (San Diego, Calif., USA).
For orientation: Tetrazolium assays rely on reduction of a dye to a coloured formazan, in cell work by metabolically active cells.

The next series deals with MiaPaca2 cells. The series is described as follows: Cell viability MTS assay, MiaPaca2. The conditions noted are these: Homo sapiens, MIA PaCa-2, 72 hours incubation. It counts as cell-based. Here is the method: as §1, §2, §3, §4
Series [2] concerns human embryonic skin fibroblast Detroit 551. The series is described as follows: Cell viability MTS assay, Detroit 551. It counts as cell-based. The conditions noted are these: 72 hours incubation. Here is the method: as §1, §2, §3, §4
The next series deals with Colo205 tumors. Put plainly: In vivo antitumor assay, Colo205 tumor xenograft mouse model. Set-up: species or system nude mice. The conditions noted are these: compared to SN-38 at 10 mg/kg and CPT-11 at 40 mg/kg. The protocol: (§5) Two Zn-DPA conjugates, Zn-DPA-(26) and Zn-DPA-(42) were subjected to an in vivo antitumor assay against Colo205 or MiaPaca2 tumors growing in nude mice following the procedure described below.
(§6) More specifically, Colo205 or MiaPaca2 cells were cultured and maintained in a flask with a RPMI-1640 medium, which was supplemented with 10% FBS. The cells were harvested and innoculated (1×10^6 cells) subcutaneously into the left flank of a adult male nude mouse. Tumor-bearing mice were grouped at the mean tumor volume of approximately 200 mm^3. Tumor dimensions were measured with a digital caliper, and the tumor volume in mm^3 was calculated by the formula: Volume=(length×width^^2)/2.
(§7) The mice were housed in sterilized cages equipped with an air filter and sterile bedding materials at the Laboratory Animal Center of National Health Research Institutes. All mice were fed with sterilized water and chow at libitum under 12-hour light/12-hour dark cycle throughout the study.
(§8) Several dosages of Zn-DPA-(26) and Zn-DPA-(42), were used in this assay, i.e., 40 mg/kg, 20 mg/kg, and 10 mg/kg, p<0.05 vs. vehicle control by one-way ANOVA analysis and the Newman-Keuls multiple comparison test. […]

For another series, the system named is MiaPaca2 tumors. Put plainly: In vivo antitumor assay, MiaPaca2 tumor xenograft mouse model. The conditions noted are these: i.v., 40, 20 and 10 mg/kg, compared to SN-38 at 10 mg/kg and CPT-11 at 40 mg/kg. Set-up: species or system nude mice. Here is the method: as §5, §6, §7, §8
In another series the test system is SCM-1 cells. Put plainly: Cell viability MTS assay, SCM-1. The format is cell-based. The conditions noted are these: Homo sapiens, 72 hours incubation. The protocol: as §1, §2, §3, §4

On to `CCc1c2c(nc3ccc(OC(=O)c4ccc(CN(CCOCCOCCNC(=O)c5ccc(CN(CCCCOc6cc(CN(Cc7ccccn7)Cc7ccccn7)cc(CN(Cc7ccccn7)Cc7ccccn7)c6)C(=O)C6(c7ccc(Cl)cc7)CCCCC6)cc5)C(=O)C5(c6ccc(Cl)cc6)CCCCC5)cc4)cc13)-c1cc3c(c(=O)n1C2)COC(=O)[C@]3(O)CC` [Zn-DPA-(42)], for which, in series [1], the “Stability (percentage remaining), time = 0” value is 100%. The “Stability (percentage remaining), time = 3 hr” value in series [1] is reported as 99%. For the same compound, the “Stability (percentage remaining), time = 6 hr” value in series [1] is on record as 98%. The IC50 is 3700 nM in the series on Colo205 cells, 550 nM with MiaPaca2 cells and more than 10000 nM in series [2]. Besides, the antitumor activity entry is “antitumor activities in a dose-dependent manner and much higher antitumor activities” with Colo205 tumors (i.v., 40, 20 and 10 mg/kg); “antitumor activities in a dose-dependent manner and much higher antitumor activities” in the series on MiaPaca2 tumors.

On to `CCc1c2c(nc3ccc(OC(=O)N4CCC(N5CCCCC5)CC4)cc13)-c1cc3c(c(=O)n1C2)COC(=O)[C@]3(O)CC` [CPT-11, reference compound], for which the IC50 with Colo205 cells is more than 10000 nM; in the series with SCM-1 cells, more than 10000 nM; in the series with MiaPaca2 cells, 3600 nM; in series [2] it was more than 10000 nM.

For the compound `CCc1c2c(nc3ccc(OC(=O)c4ccc(CN(CCCCOc5cc(CN(Cc6ccccn6)Cc6ccccn6)cc(CN(Cc6ccccn6)Cc6ccccn6)c5)C(=O)C5(c6ccc(Cl)cc6)CCCCC5)cc4)cc13)-c1cc3c(c(=O)n1C2)COC(=O)[C@]3(O)CC` [Zn-DPA-(26)], in series [1], the “Stability (percentage remaining), time = 0” value is given as 100%. The “Stability (percentage remaining), time = 3 hr” value in series [1] was determined as 99%. For the same compound, the “Stability (percentage remaining), time = 6 hr” value in series [1] amounted to 97%. Moreover, the IC50 with Colo205 cells was 1100 nM; with SCM-1 cells it was 2600 nM; with MiaPaca2 cells, 120 nM; in series [2] it was more than 10000 nM. Further, the antitumor activity entry in the series on Colo205 tumors (i.v., dosages of 10 mg/kg and 40 mg/kg) was “much higher antitumor activities”.

As for `CCc1c2c(nc3ccc(OC(=O)CCSC4CC(=O)N(Cc5ccc(C(=O)NCCCCOc6cc(CN(Cc7ccccn7)Cc7ccccn7)cc(CN(Cc7ccccn7)Cc7ccccn7)c6)cc5)C4=O)cc13)-c1cc3c(c(=O)n1C2)COC(=O)[C@]3(O)CC` (stereo partly drawn) [Zn-DPA-(12)], in series [1], the “Stability (percentage remaining), time = 0” value is on record as 100%; the “Stability (percentage remaining), time = 3 hr” value is 84%; the “Stability (percentage remaining), time = 6 hr” value worked out at 76%. Moreover, the 50% inhibitory concentration (IC50) in the series on Colo205 cells was found to be 120 nM. In the series with SCM-1 cells, this compound gave an IC50 of 940 nM. For the same compound, the IC50 in series [2] came out at 2900 nM.

`CCc1c2c(nc3ccc(O)cc13)-c1cc3c(c(=O)n1C2)COC(=O)[C@]3(O)CC` [SN-38, reference compound]: the IC50 in the series with Colo205 cells came out at 140 nM; in the series on SCM-1 cells, 640 nM; in the series with MiaPaca2 cells it was 20 nM; in series [2] it was 4000 nM.

For `CCc1c2c(nc3ccc(OC(=O)c4cccc(NC(=O)NCCCCOc5cc(CN(Cc6ccccn6)Cc6ccccn6)cc(CN(Cc6ccccn6)Cc6ccccn6)c5)c4)cc13)-c1cc3c(c(=O)n1C2)COC(=O)[C@@]3(O)CC` [Zn-DPA-(8)], the “Stability (percentage remaining), time = 0” value in series [1] came to 100%. Moreover, in series [1], the “Stability (percentage remaining), time = 3 hr” value turned out to be 90%. The “Stability (percentage remaining), time = 6 hr” value in series [1] amounted to 82%. Besides, the figures for the IC50 (with Colo205 cells; in the series on SCM-1 cells; in series [2]) were 420 nM, 640 nM and 9300 nM, respectively.

As to `CCc1c2c(nc3ccc(OC(=O)c4ccc(CN(CCCCOc5cc(CN(Cc6ccccn6)Cc6ccccn6)cc(CN(Cc6ccccn6)Cc6ccccn6)c5)C(=O)c5c(-c6ccccc6Cl)noc5C)cc4)cc13)-c1cc3c(c(=O)n1C2)COC(=O)[C@]3(O)CC` [Zn-DPA-(25)], in series [1], the “Stability (percentage remaining), time = 0” value is 100%; the “Stability (percentage remaining), time = 3 hr” value is listed as 90%; the “Stability (percentage remaining), time = 6 hr” value is listed as 85%. The compound further yielded an IC50 in the series on Colo205 cells of 580 nM. This compound also registered an IC50 in the series on SCM-1 cells of 1000 nM. Moreover, half-maximal inhibition in series [2] (IC50) required 7200 nM.
